PubChem BioAssay (NCI)
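The compound was tested at five concentrations on cells cultured in 96-well plates, with a 48-hour exposure period. GI50: concentration for 50% inhibition of growth. TGI marks complete inhibition of growth.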

Tests used:
Assay in all cases: inhibition of tumour cell growth, NCI panel, 48 h
786-0 renal = tested on: 786-0 renal
A549 NSCLC = tested on: A549 NSCLC
BT-549 breast = tested on: BT-549 breast
CAKI-1 renal = tested on: CAKI-1 renal
EKVX NSCLC = tested on: EKVX NSCLC
HL-60(TB) leukemia = tested on: HL-60(TB) leukemia
HS 578T breast = tested on: HS 578T breast
LOX IMVI melanoma = tested on: LOX IMVI melanoma
MDA-MB-435 = tested on: MDA-MB-435
NCI/ADR-RES ovarian = tested on: NCI/ADR-RES ovarian
RPMI-8226 leukemia = tested on: RPMI-8226 leukemia
RXF 393 renal = tested on: RXF 393 renal
SK-MEL-28 melanoma = tested on: SK-MEL-28 melanoma
SK-MEL-5 melanoma = tested on: SK-MEL-5 melanoma
SN12C renal = tested on: SN12C renal
SNB-19 CNS = tested on: SNB-19 CNS
T-47D breast = tested on: T-47D breast
TK-10 renal = tested on: TK-10 renal
UO-31 renal = tested on: UO-31 renal

SMILES	TGI (786-0 renal)	TGI (A549 NSCLC)	TGI (BT-549 breast)	TGI (CAKI-1 renal)	TGI (EKVX NSCLC)	TGI (HL-60(TB) leukemia)	TGI (HS 578T breast)	TGI (LOX IMVI melanoma)	TGI (MDA-MB-435)	TGI (NCI/ADR-RES ovarian)	TGI (RPMI-8226 leukemia)	TGI (RXF 393 renal)	TGI (SK-MEL-28 melanoma)	TGI (SK-MEL-5 melanoma)	TGI (SN12C renal)	TGI (SNB-19 CNS)	TGI (T-47D breast)	TGI (TK-10 renal)	TGI (UO-31 renal)	GI50 (BT-549 breast)
NCC(=O)NC1(c2cc3ccccc3s2)CCCCC1	> 100 µM	> 100 µM	> 100 µM	> 100 µM	> 100 µM	86.8 µM	99.5 µM	> 100 µM	> 100 µM	> 100 µM	45.2 µM	> 100 µM	39.8 µM	33.2 µM	> 100 µM	> 100 µM	> 100 µM	> 100 µM	> 100 µM	
NC(Cc1ccc(S(=O)(=O)O)cc1)C(=O)NC(CCCCNC(=O)NCCCCC(NC(=O)C(N)Cc1ccc(S(=O)(=O)O)cc1)C(=O)NC(Cc1ccc(S(=O)(=O)O)cc1)C(=O)O)C(=O)NC(Cc1ccc(S(=O)(=O)O)cc1)C(=O)O (centres undefined)	> 100 µM	> 100 µM	> 100 µM	> 100 µM	> 100 µM	> 100 µM	> 100 µM	> 100 µM	> 100 µM	> 100 µM	> 100 µM	> 100 µM	> 100 µM	> 100 µM	> 100 µM		> 100 µM	> 100 µM	> 100 µM	
COc1cc2c(/C=C3/C(=O)N(C)c4ccccc43)c(Cl)[nH]c2cc1C	16.5 µM	17 µM	3.64 µM	> 52.8 µM	> 47.2 µM	0.666 µM	> 100 µM	11.4 µM	0.038 µM	2.67 µM	7.79 µM	70.5 µM	> 100 µM	7.41 µM	7.99 µM	14.2 µM	> 100 µM	5.16 µM	> 58.3 µM	
Cc1c2c(c(C)n1-c1ccccc1)C(=O)N(CCCCN1CCN(c3ccccc3)CC1)C2=O	19 µM	> 100 µM	49.3 µM	> 100 µM	65.7 µM	17.2 µM	> 100 µM	23.5 µM	40.8 µM	83.9 µM	47.3 µM	> 100 µM		13.6 µM	43.9 µM	> 100 µM	28.8 µM	> 100 µM	24.8 µM	
CCC(C#N)(c1ccccc1)N(CCc1ccccc1)C(=O)c1ccccc1 (centres undefined)	37.5 µM	> 100 µM	> 100 µM	> 100 µM	> 100 µM	> 100 µM	69.6 µM	> 100 µM	> 100 µM	> 100 µM	> 100 µM	55.3 µM	> 100 µM	> 100 µM	> 100 µM	> 100 µM	> 100 µM	> 100 µM	> 100 µM	
Cc1c(NC(=S)NN)c(=O)n(-c2ccccc2)n1C	> 100 µM	> 100 µM	> 100 µM	> 100 µM	> 100 µM	> 100 µM	> 100 µM	> 100 µM	> 100 µM	> 100 µM	> 100 µM	> 100 µM	> 100 µM	> 100 µM	> 100 µM	> 100 µM	> 100 µM	> 100 µM	> 100 µM	
Cc1ccc(C2=Nc3cc(C)c(Cl)cc3S(=O)(=O)NN2)cc1	> 100 µM	> 100 µM	> 100 µM	75.7 µM	> 100 µM	90.7 µM	> 100 µM	> 100 µM	> 100 µM	> 100 µM	> 100 µM	> 100 µM	> 100 µM	> 100 µM	> 100 µM	> 100 µM	> 100 µM	> 100 µM	> 100 µM	
CC1(C)CC(=O)C(CCC(=O)/C=C/c2ccccc2)C(=O)C1	> 100 µM	> 100 µM	> 100 µM	> 100 µM	> 100 µM	> 100 µM	> 100 µM	> 100 µM	> 100 µM	> 100 µM	> 100 µM	> 100 µM	> 100 µM	> 100 µM	> 100 µM	> 100 µM	> 100 µM	> 100 µM	> 100 µM	
CN(C)c1ccc(/C=c2/c3ccccc3n3c2c2ccccc2[n+]3C)cc1	1.69 µM	19.7 µM	1.03 µM	8.53 µM	23.5 µM	0.428 µM	4.42 µM	1.98 µM	1.87 µM	32.8 µM	0.581 µM	4.47 µM	2.08 µM	0.659 µM	2.55 µM	4.76 µM	1.51 µM	3.36 µM	3.9 µM	
CCC1=NC(N/N=C/c2ccco2)=N/C1=C\c1ccccc1O	> 100 µM	> 100 µM	> 100 µM	> 100 µM	> 100 µM	60.6 µM	> 100 µM	> 100 µM	> 100 µM	> 100 µM	> 100 µM	> 100 µM	> 100 µM	> 100 µM	> 100 µM	> 100 µM	> 100 µM	> 100 µM	> 100 µM	
CC(=O)OC1=c2ccccc2=C(O)C2C1C=NN2C(C)=O (centres undefined)	> 100 µM	> 100 µM	> 100 µM	> 100 µM	> 100 µM	> 100 µM	> 100 µM	> 100 µM	> 100 µM	> 100 µM	> 100 µM	> 100 µM	> 100 µM	> 100 µM	> 100 µM	> 100 µM	> 100 µM	> 100 µM	> 100 µM	
CO/N=C(\C)c1ccc(Nc2c3ccccc3nc3occc23)cc1	6.67 µM	20 µM	21.3 µM	7.15 µM	39.9 µM	2.23 µM	10.3 µM	18.2 µM	0.224 µM	4.75 µM	12.1 µM	0.877 µM	8.62 µM	6.53 µM	22.6 µM	45.1 µM	19.2 µM	18.4 µM	25.1 µM	
C=CCn1c(=O)c2ccccc2[n+]2c(C)c(C(=O)OCC)sc12	> 100 µM	> 100 µM	> 100 µM	> 100 µM	> 100 µM	> 100 µM	> 100 µM	> 100 µM	> 100 µM	> 100 µM	> 100 µM	> 100 µM	> 100 µM	> 100 µM	> 100 µM	> 100 µM	> 100 µM	> 100 µM	> 100 µM	
O=c1cc(NCCCCCO)[nH]c(=O)[nH]1	> 100 µM	> 100 µM	> 100 µM	> 100 µM	> 100 µM	> 100 µM	> 100 µM	> 100 µM	> 100 µM	> 100 µM	> 100 µM	> 100 µM	> 100 µM	> 100 µM	> 100 µM	> 100 µM	> 100 µM	> 100 µM	> 100 µM	
O=C(/C=C1\N=C(c2ccccc2)N(c2nc3ccc(Sc4ccccc4)cc3[nH]2)C1=O)/C=C/c1ccccc1	> 100 µM	> 100 µM	> 100 µM	> 100 µM	> 100 µM	54.1 µM	> 100 µM	> 100 µM	33.9 µM	67.9 µM	60.9 µM	> 100 µM	> 100 µM	61.3 µM	> 100 µM	> 100 µM	82.6 µM	98.2 µM	> 100 µM	
O=P1(C(O)/C=C/c2ccccc2)N(Cc2ccccc2)[C@H](c2ccccc2)[C@@H](c2ccccc2)N1Cc1ccccc1 (some centres undefined)	> 100 µM	> 100 µM	> 89.4 µM	99.7 µM	> 96.1 µM	36.3 µM	> 90.2 µM	> 72.5 µM	> 93.3 µM	> 100 µM	30.1 µM	> 100 µM	> 100 µM	41.2 µM	> 100 µM	> 100 µM	> 100 µM	> 100 µM	98.3 µM	
COc1ccc(/C=C2\CCC(C)C3=C(c4ccc(OC)c(OC)c4)C(C#N)=C(N)OC32)cc1OC (centres undefined)	25.1 µM		24.5 µM	> 100 µM	8.12 µM	7.75 µM	> 100 µM	10.9 µM	10.1 µM	39.4 µM	5.76 µM	3.99 µM	31.7 µM	4.66 µM	28.2 µM	> 100 µM	7.97 µM	> 100 µM	8.4 µM	
NNC(=O)CSc1nc2ccc(I)cc2c(=O)n1Cc1ccccc1	30.7 µM	54.6 µM	42.6 µM	40.2 µM	33.2 µM	61 µM	52.5 µM	> 100 µM	> 100 µM	> 100 µM	54.7 µM	26.5 µM	80.5 µM	38.5 µM	48.6 µM	54.8 µM	> 100 µM	38.7 µM	35.4 µM	
O=C(Nc1nnc(-c2ccccc2)o1)C(SC(=S)N1CCCCC1)c1ccccc1 (centres undefined)	87.5 µM	49.5 µM	39.3 µM	77.8 µM	64.2 µM	8.38 µM	> 100 µM	18 µM	73.3 µM	33.2 µM	> 100 µM	> 100 µM	> 100 µM	28.2 µM	42 µM	> 100 µM	> 100 µM	> 100 µM	26.9 µM	
ClCCCN(CCCCl)c1ccc(C=Nc2cccc(Cl)c2)cc1	> 67.2 µM	> 79.7 µM	> 100 µM	11.8 µM	> 100 µM	58.4 µM	71.8 µM	> 100 µM	> 80.5 µM	52.5 µM	55 µM	> 52.7 µM	> 100 µM	36.7 µM	> 79.7 µM	> 100 µM	44.8 µM	26.6 µM	88.3 µM	71.2 µM
O=C(O)c1ccccc1NC(c1ccccc1)c1ccc2cccnc2c1O (centres undefined)	20.1 µM	> 100 µM	45.1 µM	50.1 µM	> 47.5 µM	8.22 µM	> 68.1 µM	43.2 µM	> 66.9 µM	> 49.3 µM	16.9 µM	27.7 µM	44.2 µM	24.5 µM	> 51.4 µM	> 100 µM	39.4 µM	51.1 µM	23.8 µM	
C=CCN1CCC(OC(=O)C(O)(C#CC)C2CCCC2)CC1 (centres undefined)	> 100 µM	> 100 µM	> 100 µM	> 100 µM	> 100 µM	> 100 µM	> 100 µM	> 100 µM	> 100 µM	> 100 µM	> 100 µM	> 100 µM	> 100 µM	> 100 µM	> 100 µM	> 100 µM	> 100 µM	> 100 µM	> 100 µM	
CCOC(=O)c1c2c3c(cccc3[nH]c1=O)Sc1ncccc1-2	> 100 µM	85.3 µM	> 100 µM	70.7 µM	> 100 µM	86.4 µM	> 100 µM	> 100 µM	> 100 µM	> 100 µM	38.4 µM	94.9 µM	> 100 µM	24 µM	> 100 µM	> 100 µM	> 100 µM	> 100 µM	81.5 µM	
O=C(CN1CCN(Cc2ccccc2)CC1)c1ccc2[nH]c(=O)oc2c1	> 100 µM	> 100 µM	> 100 µM	> 100 µM	> 100 µM	> 100 µM	> 100 µM	> 100 µM	> 100 µM	> 100 µM	> 100 µM	> 100 µM	> 100 µM	> 100 µM	> 100 µM	> 100 µM	> 100 µM	> 100 µM	> 100 µM	
